From patent US11957671B2, “Benzodioxane modulators of leukotriene A4 hydrolase (LTA4H) for prevention and treatment of aging-associated diseases” (Alkahest, Inc., priority 2021, dated 2024) come the findings set out here.

Assay [1] deals with hippocampal neurons of aged C57BL/6 mice. In words: Single cell RNA sequencing of NeuN+ hippocampal nuclei (CA1, DG). It counts as in vivo, mouse. As to the method: Aged C57BL/6 mice (21 months of age) were treated for 1 month bid po with vehicle, 1 mg/kg Compound 1, or 2.5 mg/kg SC57461A (n=3 mice per treatment group). NucSeq For Mouse Brain Tissue protocol from 10× Genomics was used to isolate mouse hippocampus nuclei. Approximately 65 mg of brain tissue were used per treatment. Nonidet P40 was used to lyse cell walls and isolated nuclei were stained with Draq5 and NeuN antibodies for FACS sorting. Approximately 5,000 nuclei were collected for each sample. Eight samples were collected for each treatment for a total of 40,000 nuclei per treatment. These samples were prepped for sequencing using the 10× Genomics Chromium Next GEM kit.
GO terms are generated using the g:Profiler Web server (https://bitt.cs.ut.ee/gprofiler) to analyze differential regulated gene lists. Reported are the top 20 gene ontology (GO terms) terms from the biological process category, sorted by significance as determined by P-value. This list was filtered to report significant GO terms that include less than 1000 genes.

Assay [2] has as its system LTA4H hydrolysis activity in human whole blood. In words: Ex Vivo LTB4 Assay, human blood. It counts as cell-based. The conditions noted are these: human whole blood incubated with compound. As to the method: Whole blood was incubated with Compound 1 or vehicle and then a calcium ionophore (Calcimycin, A23187), or 10% DMSO. LTB4 levels in plasma were measured using ELISA.
FIGS. 36-37 report the results of ex vivo target engagement assays with Compound 1 in human and mouse plasma. Whole blood from human or mouse was incubated with vehicle or Compound 1, following by a calcium ionophore stimulation. Plasma was generated and LTB4 levels were measured using ELISA. LTB4 is the product of LTA4H hydrolysis so this assay reports on LTA4H enzymatic activity.

Assay [3] deals with Transgenic Notch3R169C mice. In words: CADASIL Mouse Model, Example 10. Format: in vivo. The conditions noted are these: 1 mg/kg PO bid for four months. As to the method: Transgenic Notch3^R169C mice are obtained along with transgenic Notch3^WT and/or wild type mice as described previously (Ghosh M, et al., Ann Neurol., 78(6):887-900 (2015); Rajani R M, et al., Acta Neuropathologica Comm., 7(187) (2019); and Joutel A, et al., J. Clin. Invest., 120(2):433-45 (2010), herein incorporated by reference in their entirety). Twenty Notch3R169c mice and 10 littermate control 5-month-old wild type mice are dosed with Vehicle or Compound 1 at 1 mg/kg PO bid for four months. Mice are anesthetized and blood and tissues are collected for further analysis.
Transgenic Notch3^R169C mice treated with Vehicle or Compound as described previously in section A (Experimental Procedures supra) have blood collected via cardiac puncture in syringes pre-filled with Heparin. Brains are collected following saline and Heparin infusion and separated by mid-sagittal slice. One half of the brain is drop fixed in 4% PFA and 24 hours later, the brain is changed into a solution of 15% sucrose. A secondary change to 30% sucrose is performed 48 hours after initial fixation in PFA.
Brains are then sectioned to 50 micrometers in thickness using a vibratome and placed on a slide for immunostaining and stained with PDGFRβ and LECTIN antibodies as described previously (Ghosh supra) to show pericyte coverage. The number of PDGFRβ positive pericytes per square millimeter of selected field area in the cortex is analyzed by randomly selecting four fields in nonadjacent sections at approximately 100 μm intervals.
Albumin and fibrinogen presence is measured as a positive signal in the brain parenchyma. The signals are quantified as described previously (Ghosh supra). Transgenic mice treated with Vehicle has increased albumin and fibrinogen leakiness into the brain parenchyma compared to Vehicle treated wild-type controls.
GFAP and AQP4 markers for astrocytes are measured to determine the presence of astrocyte end-feet. Transgenic mice treated with Vehicle is reduced GFAP and AQP4 compared with Vehicle treated wild-type controls. […] AQP4 and GFAP are markers for astrocyte, which make up an important part of the neurovascular unit and are lost in CADASIL mouse models and human patients.

For assay [4], the system named is aged wild type (WT; C57BL/6) mice. Briefly: Histology of astrocytes (GFAP, AQP4) in CA1 hippocampus. It counts as in vivo, mouse. As to the method: Brains were collected following saline perfusion and separated by mid-sagittal slice with one-half drop fixed in freshly prepared 4% PFA. PFA was changed to 30% sucrose 24-48 hours later. A second change to 30% sucrose occurred 24 hours later. Brain tissue was sectioned or lysed and analyzed for GFAP, AQP4, or IBA1 by standard histological methods. Images were acquired using a confocal microscope or Axioscan slide scanner.
Three independent cohorts of aged wild type (WT; C57BL/6) mice between twenty to twenty-two months of age (20-22 mo) were homogenized into two (2) groups by body weight, total distance travelled in the open field test, and average velocity in the open field test. Group 1 was administered vehicle control PO daily. Group 2 was administered 10 mg/kg of the LTA4H inhibitor Compound 1 PO daily. Both groups were dosed for either 10 days or 4 weeks daily. Behavioral assays were run during the last week of dosing and animals were sacrificed at the end of the study for histological and molecular assays.
FIGS. 22-30 report the results of the histology of astrocytes. GFAP is a pan astrocytic marker that was used to measure total number and size of astrocytes as a readout for astrocyte reactivity. AQP4 is a water channel expressed in astrocyte endfeet that line the blood-brain barrier. GFAP and AQP4 are increased with age and diseases with cognitive decline and BBB impairment (Kress B T et al., Ann Neurol, 76(6):845-61 (2014), Owasil R et al., Int J Mol Sci, 21(4) (2020), and Qi L et al., Life Sci, 88(1-2):50-56)). FIG. 22 reports GFAP percent area (Mann-Whitney test. (n=10, 10)), FIG. 23 reports the number of GFAP+ cells (Mann-Whitney test. (n=10, 10)), and FIG. 24 reports the average size of GFAP+ cells (Mann-Whitney test. (n=10, 10)) in the CA1 region of the hippocampus following 10 days of dosing. FIG. 25 reports the AQP4 intensity across a 60 micron (um) long line drawn across the large descending vessels of the CA1 hippocampus after 10 days of dosing with vehicle or Compound 1.

Setting [5] is: 1 month bid po, 1 mg/kg Compound 1 or 2.5 mg/kg SC57461A.

For `O=C(O)C1CCN(Cc2ccc([C@H]3COc4ccccc4O3)cc2)CC1` [Example 1, 1-{4-[(2S)-2,3-dihydro-1,4-benzodioxin-2-yl]benzyl}piperidine-4-carboxylic acid], in assay [1] (setting [5]), the “CA1 neuronal gene changes” value is listed as “many significant gene changes to neurons in the CA1 region of the hippocampus”, the “DG neuronal gene changes” value was “many significant gene changes to neurons in the DG region of the hippocampus”, the “Dcc gene expression in the dentate gyrus” value is “upregulation of Dcc gene expression” and the “Spock3 gene expression in the dentate gyrus” value is “upregulation of Spock3 gene expression”. Besides, in assay [1] (long-term treatment), the “Biological Process GO terms, CA1 hippocampal neurons” value is “changes to “synaptic signaling” and “synaptic organization””; the “Biological Process GO terms, DG hippocampal neurons” value was “changes to synapses”. Moreover, in assay [2], the “LTB4 plasma levels after calcium ionophore stimulation” value is “reduces LTB4 plasma levels to unstimulated levels”. Moreover, in assay [3], the “GFAP and AQP4 signal at vessels in the cortex” value is “increased positive signal at Lectin-positive vessels”; the “additional blood-brain barrier markers in cortices” value is given as “significant levels of improvement”; the “albumin and fibrinogen in brain parenchyma” value was “reduced albumin and fibrinogen”; the “plasma levels of LTB4” value is on record as “reduction in plasma levels of LTB4”. Further, in assay [3] (versus vehicle-treated transgenic mice), the “pericyte coverage and number in cortex” value is “increase in pericyte coverage and number”. In assay [4] (4 weeks of treatment), the “AQP4 intensity across large descending vessels of CA1 hippocampus” value is “reduction in the AQP4 intensity”; the “GFAP percent thresholded area, CA1” value is listed as “significant reduction GFAP percent thresholded area”; the “total GFAP+ cell number, CA1” value is “did not change”. In assay [4] (10 days of dosing), the “AQP4 intensity across large descending vessels of CA1 hippocampus” value is recorded as “trending reduction in AQP4 intensity”.
